Data taken from patent publication US7390910B2, “Compounds for treating tumors” (priority 2003, dated 2008).

Tests used:
[1] = tested on: bovine microtubule-associated protein (MAP)-rich tubulin; format: biochemical; conditions: 0.3 uM
In short: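 MAP-rich bovine tubulin at 1.5 mg/ml final was dissolved in cold PEM buffer (80 mM Na-PIPES pH 6.9, 1 mM MgCl2, 1 mM EGTA) with 1 mM GTP, then centrifuged at 12,000×g for 10 min at 4° C. Aliquots of 100 μl were added quickly to a low-volume 96-well plate holding duplicate 10 μl compound samples. Absorbance at 340 nm was read each minute for 60 min at 24° C.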

LOX = experiment: Cell survival assay (SRB), LOX; format: cell-based, human; conditions: LOX cells
Procedure: (§1) Cell Survival Assay: Standard Pharmacological Test Procedure. […] Compounds are incubated with cells for 3 days.

KB cells = experiment: cells; format: cell-based; conditions: for IC50: 3 days, SRB
Procedure: as §1

KB85 = experiment: cells; format: cell-based; conditions: for IC50: 3 days, SRB
Procedure: as §1

KBV1 = experiment: cells; format: cell-based; conditions: for inhibition at 3 µM: KB-V1, 3000 nM; for IC50: 3 days, SRB
Procedure: as §1

NCl-H1299 = experiment: Cell survival assay (SRB), NCl-H1299; format: cell-based; conditions: NCl-H1299 cells
Procedure: as §1

HCT-15 = experiment: Cell survival assay (SRB), HCT-15; format: cell-based; conditions: HCT-15 cells
Procedure: as §1

A375 = experiment: Cell survival assay (SRB), A375; format: cell-based; conditions: A375 cells
Procedure: as §1

[2] = tested on: Human Melanoma Carcinoma Lox; experiment: Growth of tumors in nude mice (LOX xenograft); format: in vivo, athymic nu/nu female mice
From the text: Growth of Tumors in Nude Mice. […] A p-value ≦0.05 indicates a statistically significant reduction in relative tumor growth of treated group compared to that of the vehicle control group.

Colo205 = experiment: Cell survival assay (SRB), Colo205; format: cell-based; conditions: Homo sapiens, COLO 205, 72 h, Colo205 cells, 3 days
Procedure: as §1

S1-M1 = experiment: Cell survival assay (SRB), S1-M1; format: cell-based; conditions: S1-M1 cells
Procedure: as §1

S1 = experiment: Cell survival assay (SRB), S1; format: cell-based; conditions: S1 cells
Procedure: as §1

## C/C(=C\[C@H](C(C)C)N(C)C(=O)[C@@H](NC(=O)[C@@H](C)C(C)(C)c1ccccc1)C(C)(C)C)C(=O)O [Example 92, (E,4S)-4-[((2S)-2-{[(2S)-2,3-dimethyl-3-phenylbutanoyl]amino}-3,3-dimethylbutanoyl)(methyl)amino]-2,5-dimethyl-2-hexenoic acid]
[1]
  Tubulin Polym. % inhibition at 0.3 uM: 94%
LOX; Homo sapiens
  IC50: 1070 nM
KB cells; Homo sapiens, KB, 72 h
  IC50: 861 nM
KB85; 72 h
  IC50: 990 nM
KBV1; Homo sapiens
  inhibition at 3 µM: 30%
NCl-H1299
  IC50: 1200 nM
HCT-15; Homo sapiens
  IC50: 1380 nM

## CN[C@H](C(=O)N[C@H](C(=O)N(C)[C@H](/C=C(\C)C(=O)NN)C(C)C)C(C)(C)C)C(C)(C)c1ccccc1 [Example 109, (2S)-N-[(1S,2E)-4-hydrazino-1-isopropyl-3-methyl-4-oxo-2-butenyl]-N,3,3-trimethyl -{[(2S)-3-methyl-2-(methylamino)-3-phenylbutanoyl]amino}butanamide]
KB cells
  IC50: 65 nM
KB85
  IC50: 227 nM
KBV1
  KBV1 % inhibition @ 3000 nM: 23%
  IC50: 2080 nM
A375
  IC50: 19 nM
[2]; 3 mg/kg IV on days 1, 5, 9
  % T/C on day 7: 24%
[2]; 3 mg/kg IV on days 1, 5, 9, day 13
  % T/C on day 13: 8%

## CN[C@H](C(=O)N[C@H](C(=O)N(C)[C@H](/C=C(\C)C(C)=O)C(C)C)C(C)(C)C)C(C)(C)c1ccccc1 [Example 84, N,β,β-trimethyl-L-phenylalanyl-N^1-[(1S,2E)-1-isopropyl-3-methyl-4-oxo-2-pentenyl]-N^1,3-dimethyl-L-valinamide]
[1]
  Tubulin Polym. % inhibition at 0.3 uM: 69%
LOX; Homo sapiens
  IC50: 550 nM
KB cells; Homo sapiens, KB, 72 h
  IC50: 403 nM
KB85; 72 h
  IC50: 664 nM
KBV1; Homo sapiens, KB-V1, 72 h
  IC50: 2360 nM
Colo205
  IC50: 180 nM
NCl-H1299
  IC50: 832 nM
HCT-15; Homo sapiens
  IC50: 1260 nM

## CN[C@H](C(=O)N[C@H](C(=O)N(C)[C@H](/C=C(\C)C(=O)N1CCN(C)CC1)C(C)C)C(C)(C)C)C(C)(C)c1ccccc1 [Example 26, N,β,β-trimethyl-L-phenylalanyl-N^1-[(1S,2E)-1-isopropyl-3-methyl-4-(4-methyl-1-piperazinyl)-4-oxo-2-butenyl]-N^1,3-dimethyl-L-valinamide]
[1]
  Tubulin Polym. % inhibition at 0.3 uM: 71(2) %
LOX; Homo sapiens
  IC50: 46 nM
KB cells; Homo sapiens, KB, 72 h
  IC50: 33 nM
KB85; 72 h
  IC50: 60 nM
KBV1; Homo sapiens, KB-V1, 72 h
  IC50: 2330 nM
[2]; 15 mg/kg IV on days 1, 5, 9
  % T/C on day 7: 4%

## CO[C@H](C(=O)N[C@H](C(=O)N(C)[C@H](/C=C(\C)C(=O)O)C(C)C)C(C)(C)C)C(C)(C)c1ccccc1 [Example 105, (E,4S)-4-[{N-[(2S)-2-methoxy-3-methyl-3-phenylbutanoyl]-3-methyl-L-valyl}(methyl)amino]-2,5-dimethyl-2-hexenoic acid]
[1]
  Tubulin Polym. % inhibition at 0.3 uM: 64%
LOX; Homo sapiens
  IC50: 1740 nM
KB cells; Homo sapiens, 72 h, 3000 nM
  inhibition at 3 µM: 43%
KB cells; Homo sapiens, KB, 72 h
  IC50: 2690 nM
KB85; 3000 nM
  inhibition at 3 µM: 21%
KBV1; Homo sapiens
  inhibition at 3 µM: 0%
Colo205
  IC50: 1740 nM

## (2E,4S)-2,5-dimethyl-4-(methyl{3-methyl-N-[(2S)-3-methyl-2-(methylamino)-3-phenylbutyl]-L-valyl}amino)-2-hexenoic acid [Example 87]
[1]
  Tubulin Polym. % inhibition at 0.3 uM: 28%
LOX
  IC50: 151 nM
KB cells
  IC50: 104 nM
KB85
  IC50: 312 nM
KBV1
  KBV1 % inhibition @ 3000 nM: 14%(2)
NCl-H1299
  IC50: 295 nM
HCT-15
  IC50: 759 nM

## CN[C@H](C(=O)N[C@H](C(=O)N(C)[C@H](/C=C(\C)C(=O)N1CCC[C@H]1C(=O)OC)C(C)C)C(C)(C)C)C(C)(C)c1ccccc1 [Example 35, N,β,β-trimethyl-L-phenylalanyl-N^1-{(1S,2E)-4-[(2S)-2-(methoxycarbonyl)pyrrolidin-1-yl]-1-isopropyl-3-methyl-4-oxobut-2-enyl}-N^1,3-dimethyl-L-valinamide]
[1]
  Tubulin Polym. % inhibition at 0.3 uM: 82%
KB cells; Homo sapiens, KB, 72 h
  IC50: 1.5 nM
KB85; 72 h
  IC50: 7.3 nM
KBV1; Homo sapiens, KB-V1, 72 h
  IC50: 291 nM
S1-M1
  IC50: 11 nM
S1
  IC50: 9 nM
[2]; 2 mg/kg IV on days 1, 5, 9
  % T/C on day 7: 5%
[2]; 2 mg/kg IV on days 1, 5, 9, day 14
  % T/C on day 14: 1%
